In patent US9943566B2, “NF-κB inhibitor composition for skin health” (Geoffrey Brooks Consultants, LLC, priority 2016, dated 2018):

Tested on: cultured human fibroblasts
Assay: DNA microarray analysis of gene expression in cultured human fibroblasts treated with peptides
Type: cell-based
Conditions: for Peptide Fluorescent Intensity: TGFB / Peptide Fluorescent Intensity: TGFBR1 / Peptide Fluorescent Intensity: TGFBR3: TGF Family Molecules
Description: Expression levels for a variety of different genes treated with N-M-A-N-A-K (SEQ ID NO: 1) and A-N-V-A-E-N-A (SEQ ID NO: 2) were determined using DNA microarray analysis of cultured human fibroblasts at BioInnovation Laboratories, Inc., Lakewood, Colo.
The microarrays were scanned with an Axon GenePix 4100A Scanner with the scanning resolution set to 10 μm and analyzed with GenePix Pro software. During the initial scan the PMT gains for the scanner were adjusted such that the Cy5/Cy3 image count ratios were between 0.9 and 1.1.
To derive the standard curve for the assay, the relative fluorescent units versus the known RNA concentrations in μg/ml for the standards were plotted and subjected to regression analysis to establish the line that best fit the data points. Mean RFU values for the test materials and untreated samples were used to estimate the amount of RNA present in each sample.
Because the level of gene expression is related to the fluorescence intensity of the probed gene marker on the microarray, and since it is possible to have differences in labeling efficiency when making the Cy3 and Cy5 probes, it is essential to normalize the fluorescence measurements between the two respective dyes before examining changes in gene expression. As a result, fluorescence intensities for the microarrays were subjected to global normalization. The total fluorescent signal for both dyes was normalized with a correction factor so that the ratio of total intensities for both dyes was equal to one.
The resulting normalized total fluorescent signals for peptides, N-M-A-N-A-K (SEQ ID NO: 1) and A-N-V-A-E-N-A (SEQ ID NO: 2) with a variety of gene samples are shown in Table 1.

[1] = 10 ppm peptide, Additional Genes
[2] = 10 ppm peptide, Anti-Inflammatory
[3] = 10 ppm peptide, Extracellular Matrix Genes Regulated by TGF Beta
[4] = 10 ppm peptide, Genes that Regulate Wound Healing (regulated by TGF beta)
[5] = 10 ppm peptide, Molecules that Regulate TGF Beta Expression/Activity
[6] = 10 ppm peptide, TGF Beta Signaling Pathway Molecules

Asparagine-Methionine-Alanine-Asparagine-Alanine-Lysine (Asn-Met-Ala-Asn-Ala-Lys) [NMANAK]
number of anti-inflammatory genes upregulated (COX1, COX411, COX7C, COX8A, DEFB4, IL10RB, IL26, IL27, ILF2, ILDR1) (10 ppm peptide): ≥ 10 | Peptide Fluorescent Intensity: AQP3 [1]: 3.294 | Peptide Fluorescent Intensity: EEF1A1 (cell growth) [1]: 6.301 | Peptide Fluorescent Intensity: EEF1A2 (cancer cell growth) [1]: 0.067 | Peptide Fluorescent Intensity: EEF1G (aminoacyl transferase - glutathione) [1]: 1.928 | Peptide Fluorescent Intensity: LOX [1]: 1.035 | Peptide Fluorescent Intensity: OGG1 [1]: 1.176 | Peptide Fluorescent Intensity: PLOD [1]: 1.105 | Peptide Fluorescent Intensity: PLOD2 [1]: 1.085 | Peptide Fluorescent Intensity: PLOD3 [1]: 4.092 | Peptide Fluorescent Intensity: RAD23A [1]: 0.933 | Peptide Fluorescent Intensity: RAD23B [1]: 0.603 | Peptide Fluorescent Intensity: SIRT1 [1]: 0.410 | Peptide Fluorescent Intensity: SIRT3 [1]: 0.735 | Peptide Fluorescent Intensity: SIRT 5 [1]: 1.482 | Peptide Fluorescent Intensity: COX1 [2]: 2.645 | Peptide Fluorescent Intensity: COX7C [2]: 1.341 | Peptide Fluorescent Intensity: COX8A [2]: 1.803 | Peptide Fluorescent Intensity: COX411 [2]: 2.067 | Peptide Fluorescent Intensity: DEFB4 [2]: 4.798 | Peptide Fluorescent Intensity: IL10RB [2]: 1.889 | Peptide Fluorescent Intensity: IL26 [2]: 2.036 | Peptide Fluorescent Intensity: IL27 [2]: 2.257 | Peptide Fluorescent Intensity: ILDR1 (immunoglobin receptor) [2]: 1.546 | Peptide Fluorescent Intensity: ILF2 [2]: 4.120 | Peptide Fluorescent Intensity: BMP7 [3]: 2.000 | Peptide Fluorescent Intensity: COL1A2 [3]: 3.992 | Peptide Fluorescent Intensity: COL3A1 [3]: 2.047 | Peptide Fluorescent Intensity: COL6A1 [3]: 3.446 | Peptide Fluorescent Intensity: COL6A2 [3]: 1.705 | Peptide Fluorescent Intensity: COL7 [3]: 1.080 | Peptide Fluorescent Intensity: CTGF [3]: 0.429 | Peptide Fluorescent Intensity: EGFR [3]: 1.159 | Peptide Fluorescent Intensity: ELA2A (elastase) [3]: 3.148 | Peptide Fluorescent Intensity: ELN [3]: 0.773 | Peptide Fluorescent Intensity: FGF3 (fibroblast growth factor) [3]: 2.000 | Peptide Fluorescent Intensity: MMP1 [3]: 1.164 | Peptide Fluorescent Intensity: MMP2 [3]: 0.785 | Peptide Fluorescent Intensity: PDGFR alpha subunit [3]: 1.608 | Peptide Fluorescent Intensity: TIMP1 [3]: 4.057 | Peptide Fluorescent Intensity: Tenascin (TNXB) [3]: 1.752 | Peptide Fluorescent Intensity: FGF2 [4]: 0.679 | Peptide Fluorescent Intensity: VEGFA [4]: 1.385 | Peptide Fluorescent Intensity: Activin A beta subunit (INHBB) [5]: 0.095 | Peptide Fluorescent Intensity: BMP1 [5]: 0.837 | Peptide Fluorescent Intensity: Follistatin (FST) [5]: 0.665 | Peptide Fluorescent Intensity: Inhibin (INHA) [5]: 1.917 | Peptide Fluorescent Intensity: LTBP (LTBP1) [5]: 0.268 | Peptide Fluorescent Intensity: YY1 [5]: 1.378 | Peptide Fluorescent Intensity: CBP (CREBBP) [6]: 0.743 | Peptide Fluorescent Intensity: SAR1A [6]: 1.632 | Peptide Fluorescent Intensity: SP1 [6]: 0.932 | Peptide Fluorescent Intensity: Smad1 [6]: 0.918 | Peptide Fluorescent Intensity: Smad2 [6]: 0.857 | Peptide Fluorescent Intensity: Smad3 [6]: 0.882 | Peptide Fluorescent Intensity: Smad4 [6]: 0.454 | Peptide Fluorescent Intensity: Smad6 [6]: 1.354 | Peptide Fluorescent Intensity: Smad7 [6]: 1.160 | Peptide Fluorescent Intensity: p38MAPK (MAPK14) [6]: 1.057 | Peptide Fluorescent Intensity: TGFB (10 ppm peptide): 1.224 | Peptide Fluorescent Intensity: TGFBR1 (10 ppm peptide): 0.373 | Peptide Fluorescent Intensity: TGFBR3 (10 ppm peptide): 1.229 | effect on AQP3 (aquaporin3) and EEf1G (glutathione) genes (10 ppm peptide, in words): upregulated | effect on genes expressing extra-cellular matrix components, including collagen production genes COL1A2, COL3A1, COL6A1 and COL6A2 (10 ppm peptide, in words): upregulation | effect on genes that control TGF-β expression (YY1, INHA) (10 ppm peptide, in words): upregulating

ANVAENA (TGF-beta mimic)
Peptide Fluorescent Intensity: LOX [1]: 0.974 | Peptide Fluorescent Intensity: OGG1 [1]: 1.364 | Peptide Fluorescent Intensity: PLOD [1]: 1.112 | Peptide Fluorescent Intensity: PLOD2 [1]: 0.445 | Peptide Fluorescent Intensity: PLOD3 [1]: 3.805 | Peptide Fluorescent Intensity: RAD23A [1]: 0.078 | Peptide Fluorescent Intensity: RAD23B [1]: 1.218 | Peptide Fluorescent Intensity: SIRT1 [1]: 0.228 | Peptide Fluorescent Intensity: SIRT3 [1]: 0.010 | Peptide Fluorescent Intensity: TERT [1]: 0.198 | Peptide Fluorescent Intensity: COL1A1 [3]: 2.198 | Peptide Fluorescent Intensity: COL1A2 [3]: 3.669 | Peptide Fluorescent Intensity: COL3A1 [3]: 2.987 | Peptide Fluorescent Intensity: COL4A1 [3]: 0.910 | Peptide Fluorescent Intensity: COL6A1 [3]: 6.282 | Peptide Fluorescent Intensity: COL6A2 [3]: 2.902 | Peptide Fluorescent Intensity: COL7 [3]: 0.435 | Peptide Fluorescent Intensity: CTGF [3]: 0.076 | Peptide Fluorescent Intensity: EGFR [3]: 1.133 | Peptide Fluorescent Intensity: Fibronectin [3]: 1.407 | Peptide Fluorescent Intensity: IL-6 [3]: 1.135 | Peptide Fluorescent Intensity: MMP1 [3]: 1.991 | Peptide Fluorescent Intensity: MMP2 [3]: 0.034 | Peptide Fluorescent Intensity: PDGFR alpha subunit [3]: 1.330 | Peptide Fluorescent Intensity: TIMP1 [3]: 4.567 | Peptide Fluorescent Intensity: Tenascin (TNXB) [3]: 1.353 | Peptide Fluorescent Intensity: βIG-H3 (TGFBI) [3]: 2.069 | Peptide Fluorescent Intensity: FGF2 [4]: 0.912 | Peptide Fluorescent Intensity: GM-CSF (CSF2) [4]: 0.014 | Peptide Fluorescent Intensity: VEGFA [4]: 0.798 | Peptide Fluorescent Intensity: Activin A beta subunit (INHBB) [5]: 0.261 | Peptide Fluorescent Intensity: BMP1 [5]: 0.497 | Peptide Fluorescent Intensity: Follistatin (FST) [5]: 0.594 | Peptide Fluorescent Intensity: Inhibin (INHA) [5]: 0.264 | Peptide Fluorescent Intensity: LTBP (LTBP1) [5]: 0.652 | Peptide Fluorescent Intensity: MMP2 [5]: 0.034 | Peptide Fluorescent Intensity: YY1 [5]: 0.713 | Peptide Fluorescent Intensity: CBP (CREBBP) [6]: 0.375 | Peptide Fluorescent Intensity: SAR1A [6]: 1.905 | Peptide Fluorescent Intensity: SP1 [6]: 0.590 | Peptide Fluorescent Intensity: Smad1 [6]: 1.325 | Peptide Fluorescent Intensity: Smad2 [6]: 0.824 | Peptide Fluorescent Intensity: Smad3 [6]: 1.202 | Peptide Fluorescent Intensity: Smad4 [6]: 0.374 | Peptide Fluorescent Intensity: Smad6 [6]: 0.136 | Peptide Fluorescent Intensity: Smad7 [6]: 0.357 | Peptide Fluorescent Intensity: p38MAPK (MAPK14) [6]: 0.594 | Peptide Fluorescent Intensity: p300 (EP300) [6]: 0.961 | Peptide Fluorescent Intensity: TGFB (10 ppm peptide): 0.113 | Peptide Fluorescent Intensity: TGFBR1 (10 ppm peptide): 0.128 | Peptide Fluorescent Intensity: TGFBR3 (10 ppm peptide): 0.098 | impact on anti-inflammatory genes (peptide alone, in words): does not impact anti-inflammatory genes significantly
